Laboratory results taken from article PMC9820279 (International Journal of Molecular Sciences, 2022).
Where two headings read alike, the source gives them in different places.

Columns and labels:
[1] = cited from earlier work
[2] = set-up: method as in PMID 35782945, PMID 34869538, PMID 34209864, PMID 35498984, PMID 34923590; settings: previously studied by the group; cited from earlier work
AChE = settings: previously studied by the group; cited from earlier work
BChE = settings: previously studied by the group; cited from earlier work
LOX = system: LOX; set-up: method as in PMID 35782945, PMID 34869538, PMID 34209864, PMID 35498984, PMID 34923590; settings: previously studied by the group; cited from earlier work
[3] = matrix ASFE extract 24 µg/mL, 2 h incubation, n.d = not detected in lower compartment
[4] = matrix ASFE extract 24 µg/mL, 4 h incubation, n.d = not detected in lower compartment

Experimental for HBMEC monolayer: The cell line HBMEC was used as a simplified in vitro model of the BBB endothelium. […] Endothelial cell cultures were maintained at 37 °C in a humid atmosphere enriched with 5% CO2. In our studies, HBMEC were used between passage 25 and 29. For experiments, HBMECs were seeded using a volume of 200 µL at a density of 8 × 10^4 cells/mL in rat tail collagen-I (100 µg/mL) coated 96-well plates (for viability assay) or 500 µL at a density of 1.6 × 10^5 cells/mL in rat tail collagen-I (100 µg/mL) coated semi-permeable membranes in transwell inserts (0.4 µm pore, Corning Costar Corp., USA; for BBB integrity and transport assays) for 12-well plates. The incubation timepoints were assay dependent.
For the transendothelial transport assays, HBMEC were seeded on transwell inserts as described above and are schematically depicted in Figure 1a. After seeding, the media were changed every two days. Four days post-seeding, the HBMEC monolayer was formed, and the transport studies were performed. […] Vupper and Vlower is the upper and lower compartment volume (0.5 and 1.5 mL, respectively). The culture inserts were used for the subsequent integrity permeability studies.

CC(C)=CCC/C(C)=C\CO [Nerol]
Detection in basolateral compartment (brain side) of HBMEC-BBB model (HBMEC monolayer; PLE100 extract): detected in the basolateral compartment | Te % (SEM) 2 h (HBMEC monolayer; human): 26.8 (0.2) % | Te % (SEM) 4 h (HBMEC monolayer; human): 41.5 (3.1) % | Crossing of the PAMPA-BBB system ([1]; PLE100 extract compounds): could not cross

CC1(C)CC[C@]2(C)CC[C@]3(C)C(=CC[C@@H]4[C@@]5(C)CC[C@H](O)C(C)(C)[C@@H]5CC[C@]43C)[C@@H]2C1 [β-Amyrin]
Detection in basolateral compartment (brain side) of HBMEC-BBB model (HBMEC monolayer; OL-SS extract): not detected | Detection in basolateral compartment (brain side) of HBMEC-BBB model (HBMEC monolayer; PLE100 extract): not detected | Crossing of the PAMPA-BBB system ([1]; PAMPA): not detected | Detection in the PAMPA-BBB model ([1]; PAMPA): not detected

O=C1O[C@H]([C@@H](O)CO)C(O)=C1O [Ascorbic acid]
RNS IC50 [2]: 1100.9 µg/mL

O=c1c(O[C@@H]2O[C@H](CO)[C@@H](O)[C@H](O)[C@H]2O)c(-c2ccc(O)c(O)c2)oc2cc(O)cc(O)c12 [Isoquercitrin]
Te % (SEM) 2 h (HBMEC monolayer; human, 2 h, 30 µg/mL): 6.0 (0.2) % | Te % (SEM) 4 h (HBMEC monolayer; human, 4 h, 30 µg/mL): 16.3 (1.3) % | Crossing of the in vitro PAMPA-BBB ([1]; PAMPA): not capable of crossing

COc1ccc2c3c1O[C@H]1C[C@@H](O)C=C[C@@]31CCN(C)C2 [Galantamine]
AChE IC50 (AChE): 0.40 µg/mL | BChE IC50 (BChE): 2.36 µg/mL

C=C(C)[C@@H]1CC[C@]2(C)CC[C@]3(C)[C@H](CC[C@@H]4[C@@]5(C)CC[C@H](OC(C)=O)C(C)(C)[C@@H]5CC[C@]43C)[C@@H]12 [Lupeol acetate]
Detection in basolateral compartment (brain side) of HBMEC-BBB model (HBMEC monolayer; OL-SS extract): not detected | Detection in the PAMPA-BBB model ([1]; OL-SS extract compounds): not detected

O=C(/C=C/c1ccc(O)c(O)c1)O[C@@H](C(=O)O)[C@@H](O)C(=O)O [Caftaric acid]
Detection / transport to lower compartment (brain side) of HBMEC-BBB model (HBMEC monolayer): could reach the “brain side” | Te % (SEM) 2 h (HBMEC monolayer; human, 2 h, 24 µg/mL): 46.3 (3.6) % | Te % (SEM) 4 h (HBMEC monolayer; human, 4 h, 24 µg/mL): 87.6 (3.5) % | Detection in the lower well of the PAMPA-BBB model ([1]; ASFE extract compounds): not detected in the lower well

C[C@H]1[C@H](C)CC[C@]2(CO)CC[C@]3(C)C(=CC[C@@H]4[C@@]5(C)CC[C@H](O)C(C)(C)[C@@H]5CC[C@]43C)[C@H]12 [uvaol]
Detection in basolateral compartment (brain side) of HBMEC-BBB model (HBMEC monolayer; OL-SS extract): detected | Detection in the PAMPA-BBB model ([1]; OL-SS extract compounds): detected in the acceptor well

Oc1cccc(O)c1O [Pyrogallol]
Detection / transport to lower compartment (brain side) of HBMEC-BBB model (HBMEC monolayer): could reach the “brain side” | Te % (SEM) 2 h (HBMEC monolayer; human, 2 h, 24 µg/mL): 37.6 (2.6) % | Te % (SEM) 4 h (HBMEC monolayer; human, 4 h, 24 µg/mL): 80.5 (1.1) % | Detection in the lower well of the PAMPA-BBB model ([1]; ASFE extract compounds): not detected in the lower well

O=c1c(O)c(-c2ccc(O)c(O)c2)oc2cc(O)cc(O)c12 [Quercetin]
LOX IC50 (LOX): 125.7 µg/mL

Oc1cc(O)c2c(c1)O[C@H](c1ccc(O)c(O)c1)[C@H](O)[C@H]2c1c(O)cc(O)c2c1O[C@H](c1ccc(O)c(O)c1)[C@H](O)C2 [Procyanidin B2]
Detection / transport to lower compartment (brain side) of HBMEC-BBB model (HBMEC monolayer; ASFE extract): could reach the “brain side” | Te % (SEM) 2 h (HBMEC monolayer; [3]): 56.8 (0.0) % | Te % (SEM) 4 h (HBMEC monolayer; [4]): 61.9 (2.6) % | Detection in the lower well of the PAMPA-BBB model ([1]; PAMPA): not detected in the lower well

COc1cc(/C=C/C(=O)O)cc(OC)c1O [Sinapic acid]
Te % (SEM) 2 h (HBMEC monolayer): 35.6 (2.0)/n.d % | Te % (SEM) 4 h (HBMEC monolayer): 44.4 (3.2)/18.6 (0.5) % | Detection / transport to lower compartment (brain side) of HBMEC-BBB model (HBMEC monolayer; ASFE extract): could reach the “brain side” | Te % (SEM) 4 h (HBMEC monolayer; [4]): 44.4 (3.2)/18.6 (0.5) % | Detection in the lower well of the PAMPA-BBB model ([1]; ASFE extract compounds): not detected in the lower well | Crossing of the in vitro PAMPA-BBB ([1]; T33 extract compounds): not capable of crossing

C[C@H]1[C@H](C)CC[C@]2(C)CC[C@]3(C)C(=CC[C@@H]4[C@@]5(C)CC[C@H](O)C(C)(C)[C@@H]5CC[C@]43C)[C@H]12 [α-Amyrin]
Detection in basolateral compartment (brain side) of HBMEC-BBB model (HBMEC monolayer; OL-SS extract): not detected | Detection in the PAMPA-BBB model ([1]; OL-SS extract compounds): not detected

O=c1oc2c(O)c(O)cc3c(=O)oc4c(O)c(O)cc1c4c23 [Ellagic acid]
Detection / transport to lower compartment (brain side) of HBMEC-BBB model (HBMEC monolayer): could reach the “brain side” | Te % (SEM) 2 h (HBMEC monolayer; human, 2 h, 24 µg/mL): 42.4 (1.6) % | Te % (SEM) 4 h (HBMEC monolayer; human, 4 h, 24 µg/mL): 85.5 (2.5) % | Detection in the lower well of the PAMPA-BBB model ([1]; ASFE extract compounds): not detected in the lower well

O=C1c2c(O)cc(O)cc2O[C@H](c2ccc(O)cc2)[C@H]1O [Aromadendrin]
Detection / transport to lower compartment (brain side) of HBMEC-BBB model (HBMEC monolayer; ASFE extract): could reach the “brain side” | Te % (SEM) 2 h (HBMEC monolayer; [3]): 76.2 (0.8) % | Te % (SEM) 4 h (HBMEC monolayer; [4]): 78.7 (0.7) % | Detection in the lower well of the PAMPA-BBB model ([1]; ASFE extract compounds): not detected in the lower well

CC(CC(=O)C[C@@H](C)[C@H]1C[C@H](O)[C@@]2(C)C3=C(C(=O)C[C@]12C)[C@@]1(C)CC[C@H](O)C(C)(C)[C@@H]1CC3)C(=O)O (stereo partly shown) [Ganolucidic acid B]
Detection / transport to lower compartment (brain side) of HBMEC-BBB model (HBMEC monolayer; ASFE extract): could reach the “brain side” | Te % (SEM) 2 h (HBMEC monolayer; [3]): 28.4 (1.1) % | Te % (SEM) 4 h (HBMEC monolayer; [4]): 28.6 (1.5) % | Detection in the lower well of the PAMPA-BBB model ([1]; ASFE extract compounds): not detected in the lower well

COc1cc(/C=C/C(=O)O)ccc1O [Ferulic acid]
Detection / transport to lower compartment (brain side) of HBMEC-BBB model (HBMEC monolayer; ASFE extract): could reach the “brain side” | Te % (SEM) 4 h (HBMEC monolayer; [4]): 9.1 (0.3) % | Detection in the lower well of the PAMPA-BBB model ([1]; ASFE extract compounds): not detected in the lower well

C[C@@H]1CCCC2=CC[C@@H]3[C@@H](C3(C)C)[C@]21C [(-)-Aristolene]
Te % (SEM) 2 h (HBMEC monolayer): 39.7 (0.4) % | Te % (SEM) 4 h (HBMEC monolayer): 71.3 (1.6) % | Detection in basolateral compartment (brain side) of HBMEC-BBB model (HBMEC monolayer; PLE100 extract): detected in the basolateral compartment | Crossing of the PAMPA-BBB system ([1]; PLE100 extract compounds): could not cross

Oc1ccc(/C=C/c2cc(O)cc3c2[C@@H](c2cc(O)cc(O)c2)[C@H](c2ccc(O)cc2)O3)cc1 [e-viniferin]
Detection / transport to lower compartment (brain side) of HBMEC-BBB model (HBMEC monolayer; ASFE extract): could reach the “brain side” | Te % (SEM) 2 h (HBMEC monolayer; [3]): 39.2 (2.2) % | Te % (SEM) 4 h (HBMEC monolayer; [4]): 45.9 (3.0) % | Detection in the lower well of the PAMPA-BBB model ([1]; ASFE extract compounds): not detected in the lower well

CC1=C[C@@H]2C(=C(C)CC[C@H]2C(C)C)CC1 [δ-Cadinene]
Te % (SEM) 2 h (HBMEC monolayer): 21.5 (0.8) % | Te % (SEM) 4 h (HBMEC monolayer): 28.9 (2.4) %

CC(C)=CCC/C(C)=C/CC/C(C)=C/CC/C=C(\C)CC/C=C(\C)CCC=C(C)C [Squalene]
Detection in basolateral compartment (brain side) of HBMEC-BBB model (HBMEC monolayer; PLE100 extract): detected in the basolateral compartment | Te % (SEM) 2 h (HBMEC monolayer; matrix OL-SS extract 40 µg/mL, 2 h incubation, n.d = not detected in lower compartment): 24.1 (1.4) % | Te % (SEM) 4 h (HBMEC monolayer; matrix OL-SS extract 40 µg/mL, 4 h incubation, n.d = not detected in lower compartment): 33.2 (0.9) % | Te % (SEM) 2 h (HBMEC monolayer; matrix PLE100 extract 15 µg/mL, 2 h incubation, n.d = not detected in lower compartment): 19.1 (1.4) % | Te % (SEM) 4 h (HBMEC monolayer; matrix PLE100 extract 15 µg/mL, 4 h incubation, n.d = not detected in lower compartment): 47.6 (1.5) % | Crossing of the PAMPA-BBB system ([1]; PLE100 extract compounds): could not cross
